We go through twelve molecules from US20200405697A1, “Antitumor Agent” (Taiho Pharmaceutical Co., Ltd, priority 2017, published 2020).

The subject of the assay is A549 (Human lung cancer cell line). Nature of the assay: Effect of combination of sulfonamide compound and other antitumor agent (CellTiter-Glo, combination index): A549.
Where [1] appears, read: Example Compound 14 1970 nM + Trifluridine 288 nM.
Where [2] appears, read: Example Compound 14 2950 nM + Trifluridine 431 nM.
Setting [3] is: Example Compound 209A 635 nM + Trifluridine 431 nM.
Where [4] appears, read: Example Compound 235A 780 nM + Trifluridine 431 nM.
Setting [5] is: Example Compound 14 4420 nM + Talazoparib 7990 nM.
Where [6] appears, read: Example Compound 209A 952 nM + Talazoparib 8000 nM.
The mark [7] stands for this setting: Example Compound 235A 1170 nM + Talazoparib 8000 nM.
Setting [8] is: Example Compound 14 4420 nM + Oxaliplatin 1060 nM.
The mark [9] stands for this setting: Example Compound 209A 952 nM + Oxaliplatin 1060 nM.
The mark [10] stands for this setting: Example Compound 235A 1170 nM + Oxaliplatin 1060 nM.
The mark [11] stands for this setting: Example Compound 14 4420 nM + Azacytidine 4080 nM.
The mark [12] stands for this setting: Example Compound 209A 635 nM + Azacytidine 2740 nM.
Where [13] appears, read: Example Compound 209A 952 nM + Azacytidine 4110 nM.
The mark [14] stands for this setting: Example Compound 235A 780 nM + Azacytidine 2740 nM.
The mark [15] stands for this setting: Example Compound 235A 1170 nM + Azacytidine 4110 nM.
Where [16] appears, read: Example Compound 14 4420 nM + Luminespib 13.5 nM.
The mark [17] stands for this setting: Example Compound 209A 952 nM + Luminespib 13.5 nM.
The mark [18] stands for this setting: Example Compound 235A 1750 nM + Luminespib 8.13 nM.
Where [19] appears, read: Example Compound 14 4420 nM + Etoposide 3790 nM.
[20] abbreviates: Example Compound 209A 952 nM + Etoposide 3790 nM.
[21] abbreviates: Example Compound 235A 1170 nM + Etoposide 3790 nM.
The mark [22] stands for this setting: Example Compound 14 4420 nM + Lapatinib 6000 nM.
[23] abbreviates: Example Compound 209A 952 nM + Lapatinib 6000 nM.
Where [24] appears, read: Example Compound 235A 1170 nM + Lapatinib 6010 nM.
[25] abbreviates: Example Compound 14 4420 nM + Midostaurin 251 nM.
Setting [26] is: Example Compound 209A 952 nM + Midostaurin 251 nM.
Where [27] appears, read: Example Compound 235A 1170 nM + Midostaurin 251 nM.
Setting [28] is: Example Compound 14 4420 nM + Cabozantinib 6000 nM.
Setting [29] is: Example Compound 209A 952 nM + Cabozantinib 6000 nM.
The mark [30] stands for this setting: Example Compound 235A 1170 nM + Cabozantinib 6010 nM.
Setting [31] is: Example Compound 14 4420 nM + Olaparib 14800 nM.
Where [32] appears, read: Example Compound 209A 952 nM + Olaparib 14800 nM.
The mark [33] stands for this setting: Example Compound 235A 1170 nM + Olaparib 14800 nM.
The mark [34] stands for this setting: Example Compound 14 2950 nM + Sunitinib 1870 nM.
[35] abbreviates: Example Compound 14 4420 nM + Sunitinib 2800 nM.
Where [36] appears, read: Example Compound 209A 635 nM + Sunitinib 1870 nM.
The mark [37] stands for this setting: Example Compound 209A 952 nM + Sunitinib 2800 nM.
[38] abbreviates: Example Compound 235A 780 nM + Sunitinib 1870 nM.
Where [39] appears, read: Example Compound 235A 1170 nM + Sunitinib 2810 nM.
[40] abbreviates: Example Compound 14 4420 nM + 5-Fluorouracil 2700 nM.
[41] abbreviates: Example Compound 209A 952 nM + 5-Fluorouracil 4310 nM.
The mark [42] stands for this setting: Example Compound 235A 1170 nM + 5-Fluorouracil 4310 nM.

Consider `O=c1[nH]c(=O)n([C@H]2C[C@H](O)[C@@H](CO)O2)cc1C(F)(F)F` [Trifluridine, trifluridine], for which the CI value runs as follows: under setting [1], 0.892; under setting [2], 0.844; (Example Compound 14 4420 nM + Trifluridine 645 nM) 0.678; (Example Compound 14 6640 nM + Trifluridine 969 nM) 0.791; under setting [3], 0.897; (Example Compound 209A 952 nM + Trifluridine 646 nM) 0.733. Also, the CI value is recorded as 0.775 (Example Compound 209A 1430 nM + Trifluridine 970 nM), 0.869 under setting [4], 0.680 (Example Compound 235A 1170 nM + Trifluridine 646 nM) and 0.739 (Example Compound 235A 1750 nM + Trifluridine 967 nM). The Fa value is 0.4363 under setting [1], 0.6485 under setting [2], 0.5907 under setting [3] and 0.5850 under setting [4].
On to `Cn1ncnc1[C@H]1c2n[nH]c(=O)c3cc(F)cc(c23)N[C@@H]1c1ccc(F)cc1` [Talazoparib, talazoparib], for which the CI value is, setting by setting: under setting [5], 0.540; under setting [6], 0.422; under setting [7], 0.585. The Fa value came out at 0.7406 under setting [5], 0.7998 under setting [6] and 0.6990 under setting [7].
As to `O=C1[O][Pt]2([NH][C@@H]3CCCC[C@H]3[NH]2)[O]C1=O` [Oxaliplatin, oxaliplatin], the CI value under setting [8] is on record as 0.829, the CI value under setting [9] is on record as 0.762 and the CI value under setting [10] was found to be 0.793. In addition, the Fa value under setting [8] is recorded as 0.7498, the Fa value under setting [9] was determined as 0.7832 and the Fa value under setting [10] was 0.7355.
On to `Nc1ncn([C@@H]2O[C@H](CO)[C@@H](O)[C@H]2O)c(=O)n1` [Azacytidine, azacitidine], for which the CI value under setting [11] is on record as 0.744; the CI value under setting [12] amounted to 0.850; the CI value under setting [13] is 0.520; the CI value under setting [14] is 0.822; the CI value under setting [15] is 0.767. The Fa value by setting is: under setting [11], 0.7570; under setting [12], 0.6005; under setting [13], 0.8264; under setting [14], 0.5392; under setting [15], 0.6909.
Regarding `CCNC(=O)c1noc(-c2cc(C(C)C)c(O)cc2O)c1-c1ccc(CN2CCOCC2)cc1` [Luminespib, luminespib], the CI value runs as follows: under setting [16], 0.786; under setting [17], 0.832; under setting [18], 0.819. The Fa value was 0.8373 under setting [16], 0.8172 under setting [17] and 0.8795 under setting [18].
Take `COc1cc([C@@H]2c3cc4c(cc3[C@@H](O[C@@H]3O[C@@H]5CO[C@@H](C)O[C@H]5[C@H](O)[C@H]3O)[C@H]3COC(=O)[C@H]23)OCO4)cc(OC)c1O` [Etoposide, etoposide]: the CI value is, setting by setting: under setting [19], 0.707; under setting [20], 0.635; under setting [21], 0.763. Further, the Fa value reads like this: under setting [19], 0.7245; under setting [20], 0.7460; under setting [21], 0.6978.
Consider `CS(=O)(=O)CCNCc1ccc(-c2ccc3ncnc(Nc4ccc(OCc5cccc(F)c5)c(Cl)c4)c3c2)o1` [Lapatinib, lapatinib], for which the CI value under setting [22] is reported as 0.512, the CI value under setting [23] was determined as 0.443 and the CI value under setting [24] turned out to be 0.417. The Fa value by setting is: under setting [22], 0.8641; under setting [23], 0.8816; under setting [24], 0.8726.
As to `CO[C@@H]1[C@H](N(C)C(=O)c2ccccc2)C[C@H]2O[C@]1(C)n1c3ccccc3c3c4c(c5c6ccccc6n2c5c31)C(=O)NC4` [Midostaurin, midostaurin], the CI value reads like this: under setting [25], 0.719; under setting [26], 0.583; under setting [27], 0.775. The Fa value was found to be 0.8117 under setting [25], 0.8520 under setting [26] and 0.7639 under setting [27].
Take `COc1cc2nccc(Oc3ccc(NC(=O)C4(C(=O)Nc5ccc(F)cc5)CC4)cc3)c2cc1OC` [Cabozantinib, cabozantinib]: the CI value is, setting by setting: under setting [28], 0.868; under setting [29], 0.486; under setting [30], 0.871. The Fa value reads like this: under setting [28], 0.7829; under setting [29], 0.8982; under setting [30], 0.7659.
Turning to `O=C(c1cc(Cc2n[nH]c(=O)c3ccccc23)ccc1F)N1CCN(C(=O)C2CC2)CC1` [Olaparib, olaparib], the CI value by setting is: under setting [31], 0.668; under setting [32], 0.478; under setting [33], 0.683. Moreover, the Fa value under setting [31] is 0.7031, the Fa value under setting [32] worked out at 0.7947 and the Fa value under setting [33] was 0.6832.
As for `CCN(CC)CCNC(=O)c1c(C)[nH]c(/C=C2\C(=O)Nc3ccc(F)cc32)c1C` [Sunitinib, sunitinib], the CI value by setting is: under setting [34], 0.693; under setting [35], 0.728; under setting [36], 0.688; under setting [37], 0.723; under setting [38], 0.709; under setting [39], 0.675. In addition, the Fa value runs as follows: under setting [34], 0.7017; under setting [35], 0.8248; under setting [36], 0.6919; under setting [37], 0.8234; under setting [38], 0.6775; under setting [39], 0.8225.
`O=c1[nH]cc(F)c(=O)[nH]1` [5-Fluorouracil, 5-fluorouracil]: the CI value by setting is: under setting [40], 0.880; under setting [41], 0.853; under setting [42], 0.880. Moreover, the Fa value by setting is: under setting [40], 0.6619; under setting [41], 0.7187; under setting [42], 0.6738.
